Laboratory results: patent US11472798B2 (Mission Therapeutics Limited, priority 2014, dated 2022)

Molecular target: T1, UCHL1 (Homo sapiens, UniProt P09936)
T1 construct: made in house; host or cells: HEK293T
T1 sequence (P09936 1-223): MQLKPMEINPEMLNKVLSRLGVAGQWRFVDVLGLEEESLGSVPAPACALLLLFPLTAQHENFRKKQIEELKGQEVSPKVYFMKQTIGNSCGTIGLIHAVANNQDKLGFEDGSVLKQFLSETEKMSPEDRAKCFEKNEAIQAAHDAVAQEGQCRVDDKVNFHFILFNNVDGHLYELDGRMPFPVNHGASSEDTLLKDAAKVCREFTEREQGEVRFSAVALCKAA
Assay: UCHL1 biochemical IC50 assay (fluorescence polarisation)
Settings: 30 min enzyme/compound pre-incubation at room temp, read after 2 hr incubation, read-out: Activity range (UCHL1 biochemical IC50 assay)
Outline: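 FLAG-UCHL1 purified from transfected HEK293T cells was preincubated 30 min at room temperature with compound (8 points, 100–0.03 μM final) in Tris pH 7.5 buffer with Tween 20, BSA and beta-mercaptoethanol. Reaction started with 50 nM TAMRA-peptide–ubiquitin isopeptide substrate; fluorescence polarisation (ex 540/em 590 nm) read at once and after 2 h.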

Work on `COC[C@H]1CCCN1Cc1cnc(NC(=O)[C@H]2CCN(C#N)[C@H]2C)s1` [Example 145, (2S,3S)-1-cyano-N-(5-(((R)-2-(methoxymethyl)pyrrolidin-1-yl)methyl)thiazol-2-yl)-2-methylpyrrolidine-3-carboxamide] yielded an IC50 of 1 to 10 µM.

With `N#CN1CC[C@H](C(=O)Nc2cn(Cc3ccccc3)cn2)C1` [Example 146, (S)—N-(1-benzyl-1H-imidazol-4-yl)-1-cyanopyrrolidine-3-carboxamide] the IC50 was < 1 µM.

For `N#CN1CC[C@H](C(=O)Nc2cn(CCc3ccccc3)cn2)C1` [Example 147, (S)-1-cyano-N-(1-phenethyl-1H-imidazol-4-yl)pyrrolidine-3-carboxamide], the IC50 was < 1 µM.

Molecule `CC(C)Cn1cnc(NC(=O)[C@H]2CCN(C#N)C2)c1` [Example 148, (S)-1-cyano-N-(1-isobutyl-1H-imidazol-4-yl)pyrrolidine-3-carboxamide] has an IC50 of 1 to 10 µM.

`C[C@H]1[C@@H](C(=O)Nc2cn(Cc3ccccc3)cn2)CCN1C#N` [Example 149, (2S,3S)—N-(1-benzyl-1H-imidazol-4-yl)-1-cyano-2-methylpyrrolidine-3-carboxamide] was tested, and the IC50 was < 1 µM.

For `N#CN1CC[C@H](C(=O)Nc2cn(-c3ccc(F)cc3)cn2)C1` [Example 150, (S)-1-cyano-N-(1-(4-fluorophenyl)-1H-imidazol-4-yl)pyrrolidine-3-Carboxamide], the IC50 was < 1 µM.

In the case of `N#CN1CC[C@H](C(=O)Nc2cn(-c3cccc(F)c3)cn2)C1` [Example 151, (S)-1-cyano-N-(1-(3-fluorophenyl)-1H-imidazol-4-yl)pyrrolidine-3-carboxamide], the IC50 is reported as < 1 µM.

With `N#CN1CC[C@H](C(=O)Nc2cn(-c3ccccc3F)cn2)C1` [Example 152, (S)-1-cyano-N-(1-(2-fluorophenyl)-1H-imidazol-4-yl)pyrrolidine-3-carboxamide] the IC50 was < 1 µM.

In the case of `N#CN1CC[C@H](C(=O)Nc2cn(-c3ccc(C(F)(F)F)cc3)cn2)C1` [Example 153, (S)-1-cyano-N-(1-(4-(trifluoromethyl)phenyl)-1H-imidazol-4-yl)pyrrolidine-3-carboxamide], the IC50 is reported as < 1 µM.

`N#CN1CC[C@H](C(=O)Nc2cn(-c3cccc(C(F)(F)F)c3)cn2)C1` [Example 154, (S)-1-cyano-N-(1-(3-(trifluoromethyl)phenyl)-1H-imidazol-4-yl)pyrrolidine-3-carboxamide] was tested, and the IC50 was < 1 µM.

For `CNC(=O)c1ccc(-n2cnc(NC(=O)[C@H]3CCN(C#N)C3)c2)cc1` [Example 155, (S)-1-cyano-N-(1-(4-(methylcarbamoyl)phenyl)-1H-imidazol-4-yl)pyrrolidine-3-carboxamide], the IC50 was < 1 µM.

For `CNC(=O)c1cccc(-n2cnc(NC(=O)[C@H]3CCN(C#N)C3)c2)c1` [Example 156, (S)-1-cyano-N-(1-(3-(methylcarbamoyl)phenyl)-1H-imidazol-4-yl)pyrrolidine-3-carboxamide], the IC50 was < 1 µM.

`CNC(=O)c1ccccc1-n1cnc(NC(=O)[C@H]2CCN(C#N)C2)c1` [Example 157, (S)-1-cyano-N-(1-(2-(methylcarbamoyl)phenyl)-1H-imidazol-4-yl)pyrrolidine-3-carboxamide] showed an IC50 of 1 to 10 µM.

`COCCNC(=O)c1ccc(-n2cnc(NC(=O)[C@H]3CCN(C#N)C3)c2)cc1` [Example 158, (S)-1-cyano-N-(1-(4-((2-methoxyethyl)carbamoyl)phenyl)-1H-imidazol-4-yl)pyrrolidine-3-carboxamide] was tested, and the IC50 was < 1 µM.

In the case of `COc1ccc(-n2cnc(NC(=O)[C@H]3CCN(C#N)C3)c2)cc1` [Example 159, (S)-1-cyano-N-(1-(4-methoxyphenyl)-1H-imidazol-4-yl)pyrrolidine-3-carboxamide], the IC50 is reported as < 1 µM.

With `COc1ccccc1-n1cnc(NC(=O)[C@H]2CCN(C#N)C2)c1` [Example 160, (S)-1-cyano-N-(1-(2-methoxyphenyl)-1H-imidazol-4-yl)pyrrolidine-3-carboxamide] the IC50 was < 1 µM.

`N#CN1CC[C@H](C(=O)Nc2cn(C3CCOCC3)cn2)C1` [Example 161, (S)-1-cyano-N-(1-(tetrahydro-2H-pyran-4-yl)-1H-imidazol-4-yl)pyrrolidine-3-carboxamide] was tested, and the IC50 was < 1 µM.

With `N#CN1CC[C@H](C(=O)Nc2cn(C3CCCCC3)cn2)C1` [Example 162, (S)-1-cyano-N-(1-cyclohexyl-1H-imidazol-4-yl)pyrrolidine-3-carboxamide] the IC50 was < 1 µM.

`N#CN1CC[C@H](C(=O)Nc2cn(C3CCc4ccccc43)cn2)C1` (stereo partly shown) [Example 163] was tested, and the IC50 was < 1 µM.

With `N#CN1CC[C@H](C(=O)Nc2cn(C3Cc4ccccc4C3)cn2)C1` [Example 164, (S)-1-cyano-N-(1-(2,3-dihydro-1H-inden-2-yl)-1H-imidazol-4-yl)pyrrolidine-3-carboxamide] the IC50 was < 1 µM.

`N#CN1CC[C@H](C(=O)Nc2cn(CC3CCOCC3)cn2)C1` [Example 165, (S)-1-cyano-N-(1-((tetrahydro-2H-pyran-4-yl)methyl)-1H-imidazol-4-yl)pyrrolidine-3-carboxamide] gave an IC50 of 1 to 10 µM.

`C[C@@H](c1ccccc1)n1cnc(NC(=O)[C@H]2CCN(C#N)C2)c1` [Example 166, (S)-1-cyano-N-(1-((S)-1-phenylethyl)-1H-imidazol-4-yl)pyrrolidine-3-carboxamide] was tested, and the IC50 was < 1 µM.

In the case of `C[C@H](c1ccccc1)n1cnc(NC(=O)[C@H]2CCN(C#N)C2)c1` [Example 167, (S)-1-cyano-N-(1-((R)-1-phenylethyl)-1H-imidazol-4-yl)pyrrolidine-3-carboxamide], the IC50 is reported as < 1 µM.

With `N#CN1CC[C@H](C(=O)Nc2cn(Cc3ccccn3)cn2)C1` [Example 168, (S)-1-cyano-N-(1-(pyridin-2-ylmethyl)-1H-imidazol-4-yl)pyrrolidine-3-carboxamide] the IC50 was < 1 µM.

`N#CN1CC[C@H](C(=O)Nc2cn(Cc3cccnc3)cn2)C1` [Example 169, (S)-1-cyano-N-(1-(pyridin-3-ylmethyl)-1H-imidazol-4-yl)pyrrolidine-3-carboxamide] was tested, and the IC50 was < 1 µM.

With `N#CN1CC[C@H](C(=O)Nc2cn(Cc3ccncc3)cn2)C1` [Example 170, (S)-1-cyano-N-(1-(pyridin-4-ylmethyl)-1H-imidazol-4-yl)pyrrolidine-3-carboxamide] the IC50 was < 1 µM.

`Cc1noc(C)c1Cn1cnc(NC(=O)[C@H]2CCN(C#N)C2)c1` [Example 171, (S)-1-cyano-N-(1-((3,5-dimethylisoxazol-4-yl)methyl)-1H-imidazol-4-yl)pyrrolidine-3-carboxamide] showed an IC50 of 1 to 10 µM.

Molecule `C[C@H]1[C@@H](C(=O)Nc2cn([C@@H](C)c3ccccc3)cn2)CCN1C#N` [Example 172, (2S,3S)-1-cyano-2-methyl-N-(1-((S)-1-phenylethyl)-1H-imidazol-4-yl)pyrrolidine-3-carboxamide] has an IC50 of 1 to 10 µM.

In the case of `C[C@@H]1CN(C#N)C[C@H]1C(=O)Nc1cn([C@@H](C)c2ccccc2)cn1` [Example 173, (3S,4S)-1-cyano-4-methyl-N-(1-((S)-1-phenylethyl)-1H-imidazol-4-yl)pyrrolidine-3-carboxamide], the IC50 is reported as < 1 µM.

`Cc1ccnc(-n2cnc(NC(=O)[C@H]3CCN(C#N)C3)c2)c1` [Example 174, (S)-1-cyano-N-(1-(4-methylpyridin-2-yl)-1H-imidazol-4-yl)pyrrolidine-3-carboxamide] was tested, and the IC50 was < 1 µM.

Molecule `Cc1cccc(-n2cnc(NC(=O)[C@H]3CCN(C#N)C3)c2)n1` [Example 175, (S)-1-cyano-N-(1-(6-methylpyridin-2-yl)-1H-imidazol-4-yl)pyrrolidine-3-carboxamide] has an IC50 of 1 to 10 µM.
